Measurements as given in patent publication US8334002B2, “Cinnamaldehyde—allicin compositions and their method of use” (Valent BioSciences Corporation, priority 2008, dated 2012).

Experiments:
[1] = test system: Root Knot Nematodes (Meloidogyne incognita); assay: Greenhouse pot test, root galling after inoculation with second stage juveniles; type: in vivo; settings: 300 ppm total a.i.
Source text: Procedure for Greenhouse pot Tests:
2″×2″ plastic pots are filled with 140 to 150 g of plant growth medium that is made up of non-pasteurized sand and soil at 2:1 ratio. Three cucumber seeds (variety Straight Eight; in the case of tomatoes, variety Rutgers) are planted at uniform depth and watered. Upon emergence, two uniform seedlings are allowed to grow in each pot by removing the third seedling. Seedlings are selected when the first true leaf is emerged, generally 5 to 7 days after planting. Each pot is treated with test material diluted in 25 mL of water that is just sufficient to wet the soil but not drip. Except for untreated control, all test pots are inoculated with about 800 second stage juveniles of Root Knot Nematodes (Meloidogyne incognita). Plants are watered as needed. Twelve to fourteen days after the pots are inoculated, the plants are carefully removed from the pots, the roots are gently washed free of soil and placed on paper towels, and data on fresh weight of shoots, roots, number of galls/treatment and/or per gram of root are taken.

nematodes = settings: at concentrations of 300 ppm; cited from earlier work
[2] = cucumber, preferred formulations of Table 2

Structure (SMILES)	% gall reduction in relation to M.i Control [1, 2] [%]	Average gall rating (0-9) [1, 2]	nematicidal activity (nematodes)	% gall reduction in relation to M.i Control ([1]; prototype formulations of Table 1) [%]	Average gall rating (0-9) ([1]; prototype formulations of Table 1, 0 = no galls, 9 = heavy galling)
O=CC=Cc1ccccc1 [Cinnamaldehyde, cinnamaldehyde]	19.4	7.25	only marginal	–	–
C=CCS[S+]([O-])CC=C (stereo not shown) [Allicin, allicin]	41.7	5.25	–	72.7	2.25
